Measurements reported in US8992890B2, “Absorbent dressings with painkilling activity” (Fidia Farmaceutici S.p.A., priority 2011, dated 2015).

Assay: Release of diclofenac from the formulation, in vitro, Franz cell, rabbit plasma
Format: in vitro ADME
Description: The evaluation of the release kinetics of Diclofenac from the formulation was conducted with a Franz cell, comparing the release of the diclofenac contained in the formulation described in example 1 with an identically formulated composition containing diclofenac sodium (DCFNa) instead of diclofenac acid, at the same percentage.
The Franz cell is an instrument known to the skilled person; briefly, and very simply, it consists of two chambers, the lower one being called the receptor, while the upper one is called the donor. The two cells are separated by a porous membrane and connected to one another; the medium in which the diffusion of the active ingredient in question will be evaluated is loaded into the receptor chamber, and the product to be evaluated is loaded into the donor chamber. The medium flows against the separator membrane, and therefore comes into contact with the product loaded into the donor chamber; the active constituent spreads through the membrane to the receptor chamber, from which aliquots are sampled for testing to determine the extent of release of the active ingredient.
In this specific case, the receptor chamber was loaded with rabbit plasma (10.2 ml); approx. 73 mg of the formulation of Example 1 based on diclofenac acid (DCF/H+), accurately weighed, was placed in the donor chamber, distributed on a cellulose acetate membrane with a porosity (cut-off) of 0.2μ, wetted with rabbit plasma, and an area of 3.46 cm2. When the operating procedures of the Franz cell had been activated, 0.3 ml samples of rabbit serum were taken from the receptor chamber, which was topped up with fresh serum from time to time. The diclofenac is determined by spectrophotometric analysis, calibrating the instrument with rabbit plasma to take account of the effect of the medium on the release of the medicament.
The same procedure was followed to measure the release of diclofenac sodium (DCF/Na) formulated identically to the formulation of Example 1 in qualitative and quantitative terms.

| Compound | duration of release (formulation of Example 1) | drug released after approx. 8 hours (formulation of Example 1, approx. 8 hours) [%] | time within which the drug is exhausted (formulated identically to Example 1 (0.8%)) [h] | medicament released in the first 4 hours (formulated identically to Example 1 (0.8%), first 4 hours) |
| --- | --- | --- | --- | --- |
| O=C(O)Cc1ccccc1Nc1c(Cl)cccc1Cl [diclofenac acid] | at least 48 hours | 60 | – | – |
| O=C(O)Cc1ccccc1Nc1c(Cl)cccc1Cl [diclofenac sodium] | – | – | ≤ 24 | over 90% |
